Test results from US20210060165A1, “Light-Controlled Antibacterial Agent Composed of Linear Cationic Oligopeptide and Multi-arm B-Cyclodextrin” (JILIN UNIVERSITY, priority 2019, published 2021).

How the values were obtained:
Experiment in all cases: growth curve (OD600) in LB liquid culture medium
Assay type in all cases: cell-based
Details in all cases: separate or as aggregates
[1] = system: Bacillus subtilis
Method: (§1) Preparation of LB liquid culture medium: dissolving 1-10 g of peptone, 0.5-5 g of yeast extract and 1-10 g of sodium chloride in 100-980 mL of redistilled water, and performing high temperature sterilization on same at 121° C. for 20 min to obtain a fresh LB liquid culture medium.
(§2) Picking bacterial strains (gram-negative bacteria such as Escherichia coli, […], Pseudomonas aeruginosa, and gram-positive bacteria such as Staphylococcus aureus) into 20-30 mL of (containing 20-25 μL of ampicillin) the above fresh LB liquid culture medium, placing in a constant temperature shaker with a revolution of 180 rpm and a temperature of 37° C. for culture for 11-15 h, thus obtaining the LB culture solution containing bacterial strains; then diluting the above LB culture solution containing bacteria strains with a blank LB liquid culture medium to an OD600 (OD600 refers to the light absorption value of the bacteria strain culture solution at 600 nm) about 0.035.
(§3) Antibacterial property of cross-linked aggregates in LB liquid culture medium: adding the diluted LB culture solution (the LB culture solution contains bacteria and ampicillin) containing bacterial strains into a clean test tube, adding the aqueous solution of the light-controlled antibacterial agent composed of the linear cationic oligopeptide and multi-arm β-cyclodextrin into the test tube, and controlling the concentration of the final linear cationic oligopeptide to 15-60 μM. Placing the prepared sample in the constant temperature shaker at 37° C. for culture, and controlling the revolution of the shaker to be 180 rpm. Determining the corresponding optical density (OD600) of the culture solution at different times (0-540 min) with a nucleic acid protein analyzer to evaluate the antibacterial activity of the cross-linked aggregates.
(§4) Preparation of LB liquid culture medium: dissolving 10 g of peptone, 5 g of yeast extract and 10 g of sodium chloride in 980 mL of redistilled water, and performing high temperature sterilization on same at 121° C. for 20 min to obtain a fresh LB liquid culture medium. Picking Escherichia coli (BL21-gold (DE3),) into 25 mL (containing 25 μL of ampicillin) of the above fresh LB liquid culture medium, placing in a constant temperature shaker with a revolution of 180 rpm and a temperature of 37° C. for culture for 12 h. Then diluting the obtained Escherichia coli culture solution with the fresh LB liquid culture medium to an OD600 of 0.035.
(§5) respectively taking 4 parts of the sterilized Escherichia coli culture solution (2.0 mL each) into 4 sterile test tubes, numbered as 1, 2, 3, and 4. […]

[2] = system: Escherichia coli (BL21-gold (DE3))
Method: as §1, §2, §3, §4, §5

[3] = system: Pseudomonas aeruginosa
Method: as §1, §2, §3, §4, §5

[4] = system: Staphylococcus aureus
Method: as §1, §2, §3, §4, §5

[5] = Embodiment 2, 37° C., peptide 30 μM, cyclodextrin 30 μM
[6] = Embodiment 9, 37° C., azoKVKVKVKazo-NH2 30 μM, three-arm β-cyclodextrin 10 μM, two-arm β-cyclodextrin 15 μM
[7] = Embodiment 4, 37° C., azoRARARVRazo-NH2 30 μM, three-arm β-cyclodextrin 20 μM
[8] = Embodiment 6, 37° C., azoKAKAKazo-NH2 60 μM, three-arm β-cyclodextrin 40 μM
[9] = Embodiment 3, 37° C., azoKLKLKLKazo-NH2 30 μM, three-arm β-cyclodextrin 20 μM
[10] = Embodiment 7, 37° C., azoRARVRazo-NH2 50 μM, three-arm β-cyclodextrin 33.33 μM
[11] = Embodiment 5, 37° C., azoRIRIRARazo-NH2 20 μM, two-arm β-cyclodextrin 20 μM

Row | SMILES | optical density (OD600) at end of culture [1, 5] | optical density (OD600) at start of culture [1, 5] | optical density (OD600) at end of culture [1, 6] | optical density (OD600) at start of culture [1, 6] | optical density (OD600) at start of incubation ([2]; Embodiment 1, 37° C., 0 min, azoKVKVKVKazo-NH2 30 μM, three-arm β-cyclodextrin 20 μM) | optical density (OD600) at end of incubation ([2]; Embodiment 1, 37° C., 9 h (540 min), azoKVKVKVKazo-NH2 30 μM, three-arm β-cyclodextrin 20 μM) | optical density (OD600) at end of culture [3, 7] | optical density (OD600) at start of culture [3, 7] | optical density (OD600) at end of culture [3, 8] | optical density (OD600) at start of culture [3, 8] | optical density (OD600) at end of culture [4, 9] | optical density (OD600) at start of culture [4, 9] | optical density (OD600) at end of culture [4, 10] | optical density (OD600) at start of culture [4, 10] | optical density (OD600) at end of culture [2, 11] | optical density (OD600) at start of culture [2, 11]
1 | OCC1OC2OC3C(CO)OC(OC4C(CO)OC(OC5C(Cn6cc(-c7cc(-c8cn(CC9OC%10OC%11C(CO)OC(OC%12C(CO)OC(OC%13C(CO)OC(OC%14C(CO)OC(OC%15C(CO)OC(OC%16C(CO)OC(OC9C(O)C%10O)C(O)C%16O)C(O)C%15O)C(O)C%14O)C(O)C%13O)C(O)C%12O)C(O)C%11O)nn8)cc(-c8cn(CC9OC%10OC%11C(CO)OC(OC%12C(CO)OC(OC%13C(CO)OC(OC%14C(CO)OC(OC%15C(CO)OC(OC%16C(CO)OC(OC9C(O)C%10O)C(O)C%16O)C(O)C%15O)C(O)C%14O)C(O)C%13O)C(O)C%12O)C(O)C%11O)nn8)c7)nn6)OC(OC6C(CO)OC(OC7C(CO)OC(OC8C(CO)OC(OC1C(O)C2O)C(O)C8O)C(O)C7O)C(O)C6O)C(O)C5O)C(O)C4O)C(O)C3O (stereo not drawn) [three-arm β-cyclodextrin] | 1.15 | 0.036 | 1.23 | 0.039 | 0.043 | 1.61 | 1.15 | 0.039 | 1.25 | 0.035 | 1.25 | 0.043 | 1.22 | 0.041 |  | 
2 | OCC1OC2OC3C(CO)OC(OC4C(CO)OC(OC5C(Cn6cc(COc7ccc(OCc8cn(CC9OC%10OC%11C(CO)OC(OC%12C(CO)OC(OC%13C(CO)OC(OC%14C(CO)OC(OC%15C(CO)OC(OC%16C(CO)OC(OC9C(O)C%10O)C(O)C%16O)C(O)C%15O)C(O)C%14O)C(O)C%13O)C(O)C%12O)C(O)C%11O)nn8)cc7)nn6)OC(OC6C(CO)OC(OC7C(CO)OC(OC8C(CO)OC(OC1C(O)C2O)C(O)C8O)C(O)C7O)C(O)C6O)C(O)C5O)C(O)C4O)C(O)C3O (stereo not drawn) [two-arm β-cyclodextrin] |  |  |  |  |  |  |  |  |  |  |  |  |  |  | 1.21 | 0.034
